In patent US20200323999A1 (The Board of Trustees of the Leland Stanford Junior …, priority 2019, published 2020):

Columns and labels:
[1] = unit not given; cited from earlier work
[2] = RF-acoustic signal characterization in tube phantom (433 MHz UHF-RF pulse); details: salts 10 wt %, NaOH 4 wt %; 1 mm tubes
Experimental: To determine the optimal composition of salt solutions for UHF-RF-acoustic contrast agents, five different salts were chosen, NaCl(aq), KI(aq), KCl(aq), MgCl2(aq), and CaCl2(aq) based on their ionic conductivity, solubility in water, and biocompatibility. NaOH(aq) was selected as a control because of its high ionic conductivity but low biocompatibility. […] Their UHF-RF-acoustic signals were measured using a prototype RF-acoustic tomography system with a nanosecond UHF-RF pulse at 433 MHz since this frequency is within the medical device radio-communications service band (MedRadio) (FIGS. 1B-1D). […] The generated RF-acoustic signals were collected by an ultrasound-linear-array transducer with a central frequency at 3.5 MHz that provides 1.2 mm imaging resolution on the transverse plane (FIGS. 1E-1F).
For comparison, a tube was included with only physiological saline (0.9 wt % of NaCl) to mimic RF-acoustic background of tissue. […]
A prototype RF-acoustic tomography imaging system (with main parts from Endra) was used to measure the RF-acoustic signal from the phantom and the mice. […] At each angle, 4095 pulses were recorded and averaged to improve the signal-to-noise ratio. […] The average energy density of a pulse at the target site was measured to be 1 mJ/cm^2, which is within the safety limit of tissue exposure. […] Acoustic signals were recorded by an ultrasound imaging system. […]

| Compound | Water solubility [1] | RF-acoustic signal of electrolyte solutions (comparison) [2] |
| --- | --- | --- |
| FC(F)(F)C(F)(F)C(F)(F)C(F)(F)C(F)(F)C(F)(F)F [Perfluorohexane, perfluorohexane] | 2.70 × 10^−7 | – |
| FC1(F)C(F)(F)C(F)(F)C2(F)C(F)(F)C(F)(F)C(F)(F)C(F)(F)C2(F)C1(F)F (centres unmarked) [Perfluorodecalin, perfluorodecalin] | 9.90 × 10^−9 | – |
| [Na+].[OH-] [NaOH(aq), sodium hydroxide, reference compound] | – | strongest RF-acoustic signal |
| FC(F)(F)C(F)(F)C(F)(F)C(F)(F)C(F)(F)F [Perfluoropentane, perfluoropentane] | 4.00 × 10^−6 | – |
| [Cl-].[Na+] [NaCl, sodium chloride] | – | weaker signals than KCl |
